Entries after “also recorded” stand apart in the source; their conditions may differ. Structures can show the parent of a compound that is named as a salt. Where two headings read alike, the source gives them in different places.
Key:
UOK257-FLCN^− cells = experiment: SRB growth inhibition assay in UOK257-FLCN^− cells; assay type: cell-based, human; settings: for GI50: SRB assay, 72 hours continuous exposure, mean ± SE (n), read-out: GI50 nM in UOK-FLCN^−; for GI50 Ratio of UOK-FLCN^+/UOK-FLCN^−: ratio>1 = more inhibitory to FLCN^− cells; for fold difference in the GI50 values between FLCN-null and FLCN-wild type UOK257 cells: GI50 higher in FLCN-wild type cells (FLCN-null more sensitive)
Excerpt: (§1) Human renal carcinoma of BHD origin cells UOK-257 (UOK-FLCN^−) and FLCN transfected UOK-257 cells UOK-FLCN^+ (Yang et al Cancer Genet Cytogenet. 2008 Jan. 15; 180(2):100-9) were provided by Dr Marston Linehan and Dr. Laura S Schmidt (Urologic Oncology Branch, Centre for Cancer Research, National Cancer Institute, National Institutes of Health, Bethesda, Md. 20892, USA). UOK-257 is the only RCC cell line that has been derived from a patient with BHD and harbours a germline FLCN frameshift mutation (c.1285dupC) (predicted, in the absence of nonsense mediated mRNA decay, to lead to premature protein truncation (p.His429ProfsX27) (Yang et al., Cancer Genet Cytogenet, 2008 Jan. 15; 180(2):100-9). We are not aware of any sporadic RCC cell lines with homozygous FLCN inactivation. FTC-133 cells were purchased from ECACC (Salisbury, United Kingdom). These cells are a non-RCC cell line derived from human thyroid carcinoma. 786-0 cells were available from the author's lab (Clifford et al., Hum Mol Genet. 2001 May 1; 10(10):1029-38). 786-O is a kidney cancer cell line that harbours an inactivating VHL gene mutation (c.311delG p.G104fs*55). All cell lines were cultured in DMEM with supplement of 10% foetal bovine serum except for FTC-133 cells which were incubated in medium with DMEM and Hens (1:1).
(§2) The sensitivity of the cell lines to drug-induced cell growth inhibition was determined using the sulphorhodamine B assay (SRB) as described by Lu et al., Clin Cancer Res. 2001:7:2114-23. Briefly, adherent exponentially growing cells were seeded into 96-well plates at 3-5×10^3 cells/100 μl/well. […] The absorbance per well was measured at 570 nm on a Victor X3 Multilabel Plate Reader (PerkinElmor, Beaconsfield, United Kingdom).
GI50 values, defined as the concentration of compounds required to inhibit growth by 50%, were then calculated. The ratio of GI50 value from UOK257-FLCN^+ and UOK257-FLCN^− were calculated and used as an indicator for the sensitivity to FLCN mutant cells.

UOK257-FLCN^+ cells = experiment: SRB growth inhibition assay in UOK257-FLCN^+ cells; assay type: cell-based, human; settings: 72 hours continuous exposure, mean ± SE (n), read-out: GI50 nM in UOK-FLCN^+
Excerpt: as §1
as §2, with “μl/well. After 20-24 h at 37° C., drugs were added at the appropriate drug concentrations to the wells (final DMSO conc. 1%) as indicated in the Results section.” for “μl/well.”
UOK-257 is the only RCC cell line that has been derived from a patient with BHD and harbours a germline FLCN frameshift mutation (c.1285dupC) (predicted, in the absence of nonsense mediated mRNA decay, to lead to premature protein truncation (p.His429ProfsX27) (Yang et al Cancer Genet Cytogenet, 2008 Jan. 15; 180(2):100-9). Both UOK257-FLCN^− and UOK257-FLCN^+ cells were examined for their sensitivities to growth inhibition induced by 15 compounds selected from the COMPARE analysis. Various concentrations of compounds were introduced into the cells 24 hrs after seeding, incubation was continued for 72 hours and growth inhibition was assessed using the suiphorhodamine B (SRB) assay. GI50 values, defined as the concentration of compounds required to inhibit growth by 50%, were then calculated. The ratio of GI50 value from UOK257-FLCN^+ and UOK257-FLCN^− were calculated and used as an indicator for the sensitivity to FLCN mutant cells.

[1] = system: VHL-deficient cells in ccRCC cell lines; settings: Sutphin et al., Cancer Res 2007, cited from earlier work
[2] = system: 786-O cells with mutant VHL; experiment: SRB growth inhibition in 786-O cells with mutant VHL; assay type: cell-based, human; settings: SRB assay, 72 hours
Excerpt: as §1
as §2, with “μl/well. After 20-24 h at 37° C., drugs were added at the appropriate drug concentrations to the wells (final DMSO conc. 1%) as indicated in the Results section.” for “μl/well.”
Cells were exposed continuously to various concentrations of drugs for 72 hours. GI50 values were determined as the concentrations at 50% growth inhibition from at least three experiments.

[3] = system: FTC-133 cells transfected with empty vector; experiment: SRB growth inhibition in FTC-133 cells, empty vector; assay type: cell-based, human; settings: SRB assay
Excerpt: as §1, §2
(§3) A FLCN containing construct was introduced into parental FTC-133 cells and stably transfected cells were selected. SRB growth inhibition assay was carried out in cells transfected with empty vector and low FLCN and high FLCN expression.
as §3

[4] = system: caspase3/7 activity in UOK257-FLCN^− and UOK257-FLCN^+ cells; experiment: Caspase-Glo 3/7 assay in UOK-257 cells with/without FLCN expression; assay type: cell-based, human; settings: 48 hrs, all three concentrations
Experimental: The ability to induce caspase 3/7 activation after exposure to compounds was measured by Caspase-Glo 3/7 Assay (Promega, Southampton, United Kingdom) according to manufacturer's instruction. The cells were seeded and dosed as described in growth inhibition assay. At the end of incubation, 70 μl of medium was removed and 30 μl of assay reagent was added to the remaining medium. Additional one hour incubation with shaking was carried out at room temperature. The resultant luminescent light was measured in a Victor X3 Multilabel Plate Reader (PerkinElmer, Beaconsfield, United Kingdom). Cell viability after compound exposure was determined by CellTiter-Blue Cell Viability Assay (Promega, Southampton, the United Kingdom) according to manufacturer's instruction. At the end of drug treatment, 20 μl of reagent was added to the medium in 96 wells and the cells were incubated for additional 4 hours. The cell viability was measured by fluorescence with a 570 nm excitation and 590 nm emission set in a Victor X3 Multilabel Plate Reader (PerkinElmer, Beaconsfield, United Kingdom).
After 48 hrs incubation, with three concentration ranges for each drug, the capase3/7 activity was detected by amount of luminescence for each cell line. The ratio of caspase3/7 activity from UOK257-FLCN^− and UOK257-FLCN^+ were calculated and used as indicators for the ability of the individual compound to induce caspase3/7 activity to FLCN mutant cells.
These ratios were calculated and used as indicators for the sensitivity to mutant FLCN cells.

Molecule	GI50 (UOK257-FLCN^− cells) [nM]	GI50 Ratio of UOK-FLCN^+/UOK-FLCN^− (UOK257-FLCN^− cells)	GI50 (UOK257-FLCN^+ cells) [nM]	GI50 (UOK257-FLCN^− cells; Homo sapiens) [nM]	GI50 (UOK257-FLCN^+ cells; Homo sapiens) [nM]	further results
COc1cccc2c1C(=O)c1c(O)c3c(c(O)c1C2=O)C[C@@](O)(C(C)=O)C[C@@H]3O[C@H]1C[C@H](N(Cc2ccccc2)Cc2ccccc2)[C@@H](O)[C@H](C)O1 [N,N-dibenzyldaunomycin]	5740 ± 918	0.22	1270 ± 549	–	–	–
COc1cc([C@@H]2c3cc4c(cc3[C@@H](O[C@@H]3O[C@@H]5CO[C@@H](c6cccs6)O[C@H]5[C@H](O)[C@H]3O)[C@H]3COC(=O)[C@H]23)OCO4)cc(OC)c1O [VM-26 (teniposide), teniposide]	–	1.10	–	773 ± 162	849 ± 358	–
C(=N\NC1=NCCN1)/c1c2ccccc2c(/C=N/NC2=NCCN2)c2ccccc12 [bisantrene hydrochloride]	–	0.77	–	1750 ± 288	1340 ± 602	–
CO[C@@H]1[C@H](O)C[C@@H](O[C@@H]2C[C@H](Oc3cc4cc5c(c(O)c4c(O)c3C)C(=O)[C@@H](O[C@H]3C[C@@H](O[C@H]4C[C@@H](O[C@H]6C[C@](C)(O)[C@@H](OC(C)=O)[C@H](C)O6)[C@H](O)[C@@H](C)O4)[C@H](O)[C@@H](C)O3)[C@H]([C@H](OC)C(=O)[C@@H](O)[C@@H](C)O)C5)O[C@H](C)[C@@H]2OC(C)=O)O[C@@H]1C [chromomycin A3]	–	0.88	–	37.4 ± 6.9	–	differential growth inhibitory activity in FLCN-deficient and FLCN-positive UOK-257 cell lines (in words) (UOK257-FLCN^− cells; listed as ChA3): did not find any differences; also recorded: does not demonstrate selective toxicity; also recorded: does not show differential growth inhibitory activity; GI50 (UOK257-FLCN^+ cells; Homo sapiens, 72 h): 33 ± 5.7 nM; differential toxicity to VHL-deficient relative to VHL-positive RCC cell lines (in words) ([1]; listed as ChA3): discriminate killing of VHL-deficient cells; differential toxicity to VHL-deficient relative to VHL-positive RCC cell lines (in words) ([1]; listed as Chromomycin A3 (ChA3)): differential toxicity
COc1cccc2c1C(=O)c1c(O)c3c(c(O)c1C2=O)C[C@@](O)(C(=O)CO)C[C@@H]3O[C@H]1C[C@H](N2CCOCC2C#N)[C@H](O)[C@H](C)O1 (stereo partly shown) [cyanomorpholino-ADR]	3.79 ± 0.39	0.16	0.62 ± 0.16	–	–	fold difference in the GI50 values between UOK257-FLCN^+ and UOK257-FLCN^− cells (UOK257-FLCN^− cells; GI50 higher in FLCN^− cells (FLCN^− less sensitive)): 6 fold
CC[C@H](C)[C@H]1NC(=O)[C@@H](NC(=O)[C@@H](CC(C)C)N(C)C(=O)[C@@H]2CCCN2C(=O)C(C)O)[C@@H](C)OC(=O)[C@H](Cc2ccc(OC)cc2)N(C)C(=O)[C@@H]2CCCN2C(=O)[C@H](CC(C)C)NC(=O)[C@@H](C)C(=O)[C@H](C(C)C)OC(=O)C[C@@H]1O (stereo partly shown) [didemnin B]	7.94 ± 1.66	0.82	6.53 ± 1.78	–	–	–
COc1cccc2c1C(=O)c1c(O)c3c(c(O)c1C2=O)C[C@@](O)(C(=O)CO)C[C@@H]3O[C@H]1C[C@H](N)[C@H](O)[C@H](C)O1 [doxorubicin (adriamycin), doxorubicin]	–	1.37	–	423 ± 54	581 ± 109	–
CS[C@H]1SC[C@H]2C(=O)N(C)[C@@H](C(C)C)C(=O)OC[C@@H](NC(=O)c3cnc4ccccc4n3)C(=O)N[C@@H](C)C(=O)N(C)[C@@H]1C(=O)N(C)[C@@H](C(C)C)C(=O)OC[C@@H](NC(=O)c1cnc3ccccc3n1)C(=O)N[C@@H](C)C(=O)N2C [echinomycin]	–	0.71	–	5.72 ± 0.22	4.03 ± 0.89	–
CO[C@@H]1C[C@](C)(O)Cc2cc3c(c(O)c21)C(=O)c1c(O)cc2c(c1C3=O)O[C@@H]1O[C@@]2(C)[C@H](O)[C@@H](N(C)C)[C@@H]1O [menogaril]	–	1.29	–	588 ± 57	757 ± 117	–
COc1cccc2c1C(=O)c1c(O)c3c(c(O)c1C2=O)C[C@@](O)(C(=O)CO)C[C@@H]3O[C@H]1C[C@H](N2CCOCC2)[C@H](O)[C@H](C)O1 [morpholino-ADR, Morpholino-ADR]	0.45 ± 0.03	0.97	0.44 ± 0.1	–	–	–
CC(=O)O[C@H]1C(=O)[C@@]2(C)[C@H]([C@H](OC(=O)c3ccccc3)[C@]3(O)C[C@H](OC(=O)[C@H](O)[C@@H](NC(=O)c4ccccc4)c4ccccc4)C(C)=C1C3(C)C)[C@]1(OC(C)=O)CO[C@@H]1C[C@@H]2O [paclitaxel (taxol), paclitaxel]	–	6.81	–	75.5 ± 9.2	514 ± 86	fold difference in the GI50 values between FLCN-null and FLCN-wild type UOK257 cells (UOK257-FLCN^− cells): ~7 fold
CC(=O)O[C@@H]1[C@@H](O)[C@H](O[C@H]2[C@H](OC(=O)[C@H]3CC[C@@H]4[C@H](C3)O[C@@]3(C[C@H](OC(=O)/C=C/c5ccccc5)[C@H](C)CO3)[C@]43CO3)O[C@H](C)[C@@H](O)[C@@H]2OC(C)=O)O[C@H](C)[C@H]1O [phyllanthoside]	–	2.15	–	199 ± 79	–	fold difference in the GI50 values between FLCN-null and FLCN-wild type UOK257 cells (UOK257-FLCN^− cells): ~2 fold; GI50 (UOK257-FLCN^+ cells; Homo sapiens, 72 h): 427 ± 97 nM
CC[C@]1(O)C[C@H]2CN(CCc3c([nH]c4ccccc34)[C@@](C(=O)OC)(c3cc4c(cc3OC)N(C=O)[C@H]3[C@@](O)(C(=O)OC)[C@H](OC(C)=O)[C@]5(CC)C=CCN6CC[C@]43[C@@H]65)C2)C1 [vincristine sulphate, vincristine sulfate]	–	1.88	–	30.1 ± 10.3	56.4 ± 17.5	fold difference in the GI50 values between FLCN-null and FLCN-wild type UOK257 cells (UOK257-FLCN^− cells): ~2 fold; change in growth inhibition for 786-0 cells with/without VHL expression (in words) [2]: no significant change; differential sensitivity in FTC-133 cells with different levels of FLCN expression (in words) [3]: no selective vincristine sensitivity
bruceantin	68.4 ± 14.9	0.64	43.6 ± 5.1	–	–	ratio of caspase3/7 activity from UOK257-FLCN^− and UOK257-FLCN^+ [4]: < 1

— patent publication US20130150317A1, “COMPOUNDS FOR THE TREATMENT OF RENAL CELL CARCINOMA” (Myrovlytis Technology Ventures Limited, priority 2010, published 2013)
